# Source: ChEMBL document CHEMBL1136817, “1,3,4-Trisubstituted pyrrolidine CCR5 receptor antagonists: modifications of the arylpropylpiperidine side chains” (Bioorg Med Chem Lett, 2003)
# Assays:
# [1] = tested on: Human immunodeficiency virus 1; test: In vitro antiviral activity against HIV-1 (BAL) in HeLa cells.; type: functional
# [2] = target: T1, C-C chemokine receptor type 5 (Homo sapiens, UniProt P51681); test: (§1) Ability to displace [125I]- labeled MIP-1alpha from CCR5 receptor expressed on CHO cell membrane; type: cell membranes
# Target sequence in this assay (P51681 whole entry): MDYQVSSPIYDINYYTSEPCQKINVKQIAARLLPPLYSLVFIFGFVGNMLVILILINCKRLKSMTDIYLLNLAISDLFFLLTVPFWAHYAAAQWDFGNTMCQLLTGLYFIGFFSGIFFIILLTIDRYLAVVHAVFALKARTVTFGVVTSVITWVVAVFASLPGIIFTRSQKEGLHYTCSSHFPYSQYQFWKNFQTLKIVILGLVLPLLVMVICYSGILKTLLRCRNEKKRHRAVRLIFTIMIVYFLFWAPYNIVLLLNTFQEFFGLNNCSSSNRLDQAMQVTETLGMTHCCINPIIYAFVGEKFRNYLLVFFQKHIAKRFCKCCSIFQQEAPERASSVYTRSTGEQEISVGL
# [3] = Oral bioavailability in rat; type: ADME, organism-based; conditions: in vivo
# [4] = Plasma clearance was evaluated in rat; type: ADME, organism-based; conditions: read-out: Clp
# [5] = Volume of distribution was evaluated in rat; type: ADME, organism-based; conditions: in vivo, read-out: Vdss
# [6] = Half life was evaluated in rat; type: ADME, organism-based; conditions: in vivo
# [7] = Oral bioavailability; type: ADME, organism-based; conditions: rat, in vivo
# [8] = Inhibitory concentration measured by peripheral blood mononuclear cells (BAL) viral assay; type: functional, Homo sapiens
# [9] = target: T1, C-C chemokine receptor type 5; test: as §1; type: cell membranes; remark: listed apart in the source
# Target sequence in this assay (P51681 whole entry, looked up): as the sequence (P51681 whole entry) above
# [10] = Volume of distribution was evaluated in rhesus; type: ADME, organism-based; conditions: cercopithecidae, in vivo; read-out: Vdss
# [11] = Half life was evaluated in rhesus; type: ADME; conditions: cercopithecidae, in vivo
# [12] = Plasma clearance was evaluated in rhesus; type: ADME, organism-based; conditions: cercopithecidae, read-out: Clp
# [13] = Oral bioavailability in Rhesus monkey; type: ADME, organism-based, Macaca mulatta; conditions: in vivo
# [14] = Inhibitory concentration measured by Peripheral blood mononuclear cells (BAL) viral assay; type: functional; conditions: Homo sapiens
# HeLa = test: Inhibitory concentration obtained in the HeLa cell anti infectivity assay versus BAL strain; type: functional; conditions: Homo sapiens
# [15] = Half life was evaluated in dog; type: ADME, organism-based, Canis lupus familiaris; conditions: in vivo
# [16] = Volume of distribution was evaluated in dog; type: ADME, organism-based, Canis lupus familiaris; conditions: in vivo, read-out: Vdss
# [17] = Inhibitory concentration by Peripheral blood mononuclear cells assay; type: functional; conditions: Homo sapiens
# [18] = Plasma clearance was evaluated in dog; type: ADME, organism-based, Canis lupus familiaris; conditions: read-out: Clp
# [19] = Oral bioavailability in dog; type: ADME, organism-based, Canis lupus familiaris; conditions: in vivo
# [20] = Human immunodeficiency virus 1, HeLa
Structure (SMILES),IC50 [2],clearance [4],"IC90 [1, 20]",half-life [6],also measured
O=C(O)[C@@H](CC1CCC1)N1C[C@H](CN2CCC(CC[S+]([O-])c3ccc(F)cc3)CC2)[C@@H](c2cccc(F)c2)C1 (stereo in doubt; 30),0.5 nM,,,,IC90 [1]: 33 nM
CC(C)[C@H](C(=O)O)N1C[C@H](CN2CCC(CCC(F)(F)c3ccc(F)cc3)CC2)[C@@H](c2cccc(F)c2)C1,0.5 nM,,33 nM,,
O=C(O)[C@@H](CC1CCC1)N1C[C@H](CN2CCC(CCCc3ccc(F)cc3)CC2)[C@@H](c2cccc(F)c2)C1,0.8 nM,32 mL/min/kg,2 nM,204 min,bioavailability [7]: 16%
COC(=O)C(CCC1CCN(C[C@H]2CN([C@H](CC3CC3)C(=O)O)C[C@@H]2c2cccc(F)c2)CC1)c1ccc(F)cc1 (stereo partly drawn),1.5 nM,,33 nM,,
O=C(O)[C@@H](CC1CC1)N1C[C@H](CN2CCC(CCC3(c4ccc(F)cc4)OCCO3)CC2)[C@@H](c2cccc(F)c2)C1,3.7 nM,,100 nM,,
O=C(O)[C@@H](C1CCCCC1)N1C[C@H](CN2CCC(CCC(F)(F)c3ccc(F)cc3)CC2)[C@@H](c2ccccc2)C1,0.3 nM,,4 nM,,
O=C(CCC1CCN(C[C@H]2CN([C@@H](C(=O)O)C3CCCCC3)C[C@@H]2c2ccccc2)CC1)c1ccc(F)cc1,1.6 nM,,100 nM,,
N#Cc1ccc(CCCC2CCN(C[C@H]3CN([C@H](CC4CCC4)C(=O)O)C[C@@H]3c3cccc(F)c3)CC2)cc1,0.3 nM,47.8 mL/min/kg,0.4 nM,60 min,bioavailability [7]: 7%
O=C(O)[C@@H](CC1CCC1)N1C[C@H](CN2CCC(CC[S+]([O-])c3ccc(F)cc3)CC2)[C@@H](c2cccc(F)c2)C1 (stereo in doubt; 31),0.4 nM,,,,IC90 [1]: 0.8 nM
O=C(O)[C@@H](CC1CCC1)N1C[C@H](CN2CCC(CCCc3ccccc3)CC2)[C@@H](c2ccccc2)C1,,,,,IC50 [8]: < 8 nM; IC90 (HeLa): 1.2 nM
O=C(O)[C@@H](CC1CC1)N1C[C@H](CN2CCC(CCC(O)c3ccc(F)cc3)CC2)[C@@H](c2cccc(F)c2)C1 (stereo partly drawn),0.4 nM,76 mL/min/kg,1.2 nM,54 min,bioavailability [3]: 2%; Vd [5]: 3.3 L/kg; IC95 [14]: 0.015 µM
"O=C(O)[C@@H](CC1CCC1)N1CC(CN2CCC(CCC(F)(F)c3ccc(F)cc3)CC2)[C@@H](c2ccccc2)C1 (single isomer, unassigned)",0.2 nM,,,,
O=C(O)[C@@H](C1CCCCC1)N1C[C@H](CN2CCC(CCS(=O)(=O)c3ccc(F)cc3)CC2)[C@@H](c2cccc(F)c2)C1,1.1 nM,,0.4 nM,,
CC(C)[C@H](C(=O)O)N1C[C@H](CN2CCC(CCS(=O)(=O)c3ccc(F)cc3)CC2)[C@@H](c2cccc(F)c2)C1,0.9 nM,,4 nM,,
O=C(O)[C@@H](CC1CCC1)N1C[C@H](CN2CCC(CCCc3ccccc3)CC2)[C@@H](c2cccc(F)c2)C1,0.5 nM,32 mL/min/kg,,204 min,bioavailability [7]: 24%

# Now from value to compound, other results behind:
IC50 [2],clearance [4],"IC90 [1, 20]",half-life [6],Structure (SMILES),also measured
1.6 nM,5.4 mL/min/kg,1.2 nM,96 min,CC(O)(CCC1CCN(C[C@H]2CN([C@H](CC3CC3)C(=O)O)C[C@@H]2c2cccc(F)c2)CC1)c1ccc(F)cc1 (stereo partly drawn),bioavailability [3]: 10%; Vd [5]: 3.9 L/kg
1000 nM,,,,O=C(O)[C@@H](CC1CC1)N1C[C@H](CN2CCC(CCP(=O)(O)c3ccccc3)CC2)[C@@H](c2cccc(F)c2)C1,
4.8 nM,,33 nM,,O=C(O)[C@@H](CC1CC1)N1C[C@H](CN2CCC(CCC(CO)c3ccc(F)cc3)CC2)[C@@H](c2cccc(F)c2)C1 (stereo partly drawn),
51 nM,,,,O=C(O)C(CCC1CCN(C[C@H]2CN([C@H](CC3CC3)C(=O)O)C[C@@H]2c2cccc(F)c2)CC1)c1ccc(F)cc1 (stereo partly drawn),
,78 mL/min/kg,0.4 nM,48 min,O=C(O)[C@@H](CC1CCC1)N1C[C@H](CN2CCC(CCS(=O)(=O)c3ccc(F)cc3)CC2)[C@@H](c2cccc(F)c2)C1,bioavailability [3]: 16%; Vd [5]: 1.9 L/kg; IC50 [8]: 1.6 nM; IC95 [9]: 0.2 nM
0.2 nM,,11 nM,,O=C(O)[C@@H](CC1CCC1)N1C[C@H](CN2CCC(CCCc3ccc(C(F)(F)F)cc3)CC2)[C@@H](c2cccc(F)c2)C1,
0.1 nM,,4 nM,,O=C(O)[C@@H](CC1CCC1)N1C[C@H](CN2CCC(CCSc3ccc(F)cc3)CC2)[C@@H](c2cccc(F)c2)C1,
0.3 nM,18 mL/min/kg,1.6 nM,186 min,"O=C(O)[C@@H](CC1CCC1)N1CC(CN2CCC(CCC(F)(F)c3ccc(F)cc3)CC2)[C@@H](c2cccc(F)c2)C1 (single isomer, unassigned)",Vd [10]: 1.8 L/kg; bioavailability [3]: 32%; half-life [11]: 144 min; clearance [12]: 11 mL/min/kg; Vd [5]: 2.2 L/kg; bioavailability [13]: 12%; IC95 [14]: 0.018 µM
19 nM,,,,COP(=O)(CCC1CCN(C[C@H]2CN([C@H](CC3CC3)C(=O)O)C[C@@H]2c2cccc(F)c2)CC1)c1ccccc1 (stereo partly drawn),
0.06 nM,14 mL/min/kg,0.4 nM,450 min,"O=C(O)[C@@H](CC1CC1)N1CC(CN2CCC(CCC(F)(F)c3ccc(F)cc3)CC2)[C@@H](c2cccc(F)c2)C1 (single isomer, unassigned)",Vd [10]: 2.8 L/kg; bioavailability [3]: 3.9%; half-life [15]: 144 min; Vd [16]: 3.7 L/kg; half-life [11]: 336 min; clearance [12]: 17.6 mL/min/kg; Vd [5]: 6.1 L/kg; IC95 [17]: < 0.02 µM; clearance [18]: 24 mL/min/kg; bioavailability [13]: 8%; bioavailability [19]: 37%; IC95 [14]: 0.012 µM
0.8 nM,,100 nM,,CC(C)[C@H](C(=O)O)N1C[C@H](CN2CCC(CCSc3ccc(F)cc3)CC2)[C@@H](c2cccc(F)c2)C1,
